Format in all cases: biochemical
In one experiment the target is CDK2-cycline E (Homo sapiens, UniProt P24941). Put plainly: Kinase assay (radioactive phosphate incorporation), CDK2-cyclin E. The following applies: read-out: Kinase Inhibition pIC50 CDK2-cycline E (converted). As for the experimental part:
(§1) Kinase assays. The compounds of the invention above were investigated for their ability to inhibit the enzymatic activity of various protein kinases (Table 2). This was achieved by measurement of incorporation of radioactive phosphate from ATP into appropriate polypeptide substrates. Recombinant protein kinases and kinase complexes were produced or obtained commercially. Assays were performed using 96-well plates and appropriate assay buffers (typically 25 mM β-glycerophosphate, 20 mM MOPS, 5 mM EGTA, 1 mM DTT, 1 mM […], pH 7.4), into which were added 2-4 μg of active enzyme with appropriate substrates. The reactions were initiated by addition of Mg/ATP mix (15 mM MgCl2+100 μM ATP with 30-50 kBq per well of [γ-^32P]-ATP) and mixtures incubated as required at 30° C. Reactions were stopped on ice, followed by filtration through p81 filterplates or GF/C filterplates (Whatman Polyfiltronics, Kent, UK). After washing 3 times with 75 mM aq orthophosphoric acid, plates were dried, scintillant added and incorporated radioactivity measured in a scintillation counter (TopCount, Packard Instruments, Pangbourne, Berks, UK). Compounds for kinase assay were made up as 10 mM stocks in DMSO and diluted into 10% DMSO in assay buffer.

The target of the next experiment is T1, Aurora A kinase (Homo sapiens, UniProt O14965).
T1 construct: purchased
T1 sequence (O14965 1-403): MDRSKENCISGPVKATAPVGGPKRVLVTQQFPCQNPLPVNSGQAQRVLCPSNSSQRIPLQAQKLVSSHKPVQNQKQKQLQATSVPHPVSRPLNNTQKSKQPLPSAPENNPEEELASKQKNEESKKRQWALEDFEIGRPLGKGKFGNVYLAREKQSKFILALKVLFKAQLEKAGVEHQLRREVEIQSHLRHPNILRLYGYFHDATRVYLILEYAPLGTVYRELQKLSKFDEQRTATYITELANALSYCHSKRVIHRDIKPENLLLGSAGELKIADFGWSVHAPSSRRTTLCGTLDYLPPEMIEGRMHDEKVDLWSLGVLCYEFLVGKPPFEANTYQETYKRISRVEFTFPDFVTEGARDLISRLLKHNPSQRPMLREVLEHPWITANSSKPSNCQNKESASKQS
Put plainly: Aurora-A (human) kinase assay (Kemptide substrate). As to conditions: pIC50 is -log(IC50, M); 15 μM ATP; read-out: Kinase Inhibition pIC50 Aurora A kinase (converted). As for the experimental part:
Aurora-A (human) kinase assay. This was achieved by measurement of incorporation of radioactive phosphate from ATP into Kemptide substrate (LRRASLG), upon phosphorylation by commercially obtained aurora-A kinase. Assays were performed using 96-well plates and appropriate assay buffers (8 mM MOPS, 0.2 mM EDTA, pH 7.0), into which were added 5-10 ng of active enzyme with 200 μM substrate (Kemptide). The reactions were initiated by addition of Mg/ATP mix (10 mM MgAcetate+15 μM ATP with 30-50 kBq per well of [γ-^33P]-ATP) and mixtures incubated for 40 min at room temperature. Reactions were stopped by addition of 3% phosphoric acid, followed by filtration through p81 filterplates (Whatman Polyfiltronics, Kent, UK). After washing 5 times with 75 mM aq orthophosphoric acid and once in methanol, plates were dried, scintillant added and incorporated radioactivity measured in a scintillation counter (TopCount, Packard Instruments, Pangbourne, Berks, UK). Compounds for kinase assay were made up as 10 mM stocks in DMSO and diluted into 10% DMSO in assay buffer.

The target in a further experiment is CDK9/cyclin T1 (Homo sapiens, UniProt P50750). Put plainly: CDK 9 assay (CTD peptide substrate). The following applies: read-out: Kinase Inhibition pIC50 CDK9-cyclin T1 (converted). Here is the method: as §1
Chain of CDK9/cyclin T1 (P50750 whole entry): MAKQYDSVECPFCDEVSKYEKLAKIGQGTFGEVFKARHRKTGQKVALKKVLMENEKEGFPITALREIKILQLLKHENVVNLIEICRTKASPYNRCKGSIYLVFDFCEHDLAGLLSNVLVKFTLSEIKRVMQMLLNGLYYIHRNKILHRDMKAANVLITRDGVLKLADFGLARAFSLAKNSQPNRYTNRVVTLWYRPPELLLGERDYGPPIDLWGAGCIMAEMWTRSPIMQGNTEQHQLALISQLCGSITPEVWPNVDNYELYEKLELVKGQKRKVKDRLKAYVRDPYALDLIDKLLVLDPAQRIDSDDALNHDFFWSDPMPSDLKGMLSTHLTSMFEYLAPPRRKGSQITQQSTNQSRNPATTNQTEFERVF
Chain of CDK9/cyclin T1 (O60563 whole entry partner): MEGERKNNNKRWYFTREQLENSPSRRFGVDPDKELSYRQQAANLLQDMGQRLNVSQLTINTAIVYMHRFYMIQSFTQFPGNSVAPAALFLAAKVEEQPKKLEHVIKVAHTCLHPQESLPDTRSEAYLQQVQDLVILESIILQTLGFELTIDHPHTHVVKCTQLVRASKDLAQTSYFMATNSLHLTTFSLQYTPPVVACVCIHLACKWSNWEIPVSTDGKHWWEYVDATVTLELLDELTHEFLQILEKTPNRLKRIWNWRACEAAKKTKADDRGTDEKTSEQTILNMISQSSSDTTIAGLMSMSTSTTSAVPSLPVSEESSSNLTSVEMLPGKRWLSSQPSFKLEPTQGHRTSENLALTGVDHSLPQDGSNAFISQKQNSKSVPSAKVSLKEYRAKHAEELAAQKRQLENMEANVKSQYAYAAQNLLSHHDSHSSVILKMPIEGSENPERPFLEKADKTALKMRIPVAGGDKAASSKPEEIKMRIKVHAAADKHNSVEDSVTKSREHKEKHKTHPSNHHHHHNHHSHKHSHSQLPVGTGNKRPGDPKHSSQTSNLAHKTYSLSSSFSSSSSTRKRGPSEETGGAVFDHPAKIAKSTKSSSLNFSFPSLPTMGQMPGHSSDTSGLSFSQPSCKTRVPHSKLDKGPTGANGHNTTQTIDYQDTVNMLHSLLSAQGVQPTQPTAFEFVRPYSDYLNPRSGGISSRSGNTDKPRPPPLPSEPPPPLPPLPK
CDK 7 and 9 assays. CTD peptide substrate (biotinyl-Abx-(Tyr-Ser-Pro-Thr-Ser-Pro-Ser)4-NH2; 1-2 mg/mL) and recombinant human CDK7/cyclin H, CDK9/cyclin T1, or CDK9/cyclin K (0.5-2 μg) were incubated for 45 min at 30° C. in the presence of varying amounts of test compound in 20 mM MOPS pH 7.2, 25 mM β-glycerophosphate, 5 mM EGTA, 1 mM DTT, 1 mM sodium vanadate, 15 mM MgCl2, and 100 μM ATP (containing a trace amount of ^32PγATP) in a total volume of 25 μL in a 96-well microtiter plate. The reaction was stopped by placing the plate on ice for 2 min. Avidin (50 μg) was added to each well, and the plate was incubated at room temp for 30 min. The samples were transferred to a 96-well P81 filter plate, and washed (4×200 μL per well) with 75 mM phosphoric acid. Microscint 40 scintillation liquid (50 μL) was added to each well, and the amount of ^32P incorporation for each sample was measured using a Packard Topcount microplate scintillation counter.

Structures are written as SMILES.

From patent US20090137572A1, “2-substituted-4-heteroaryl-pyrimidines useful for the treatment of proliferative disorders” (priority 2004, published 2009) come the findings set out here.

As to `COCCNc1nc(C)c(-c2ccnc(Nc3ccc(N4CCOCC4)cc3)n2)s1` [Compound 144, {4-[2-(2-Methoxy-ethylamino)-4-methyl-thiazol-5-yl]-pyrimidin-2-yl}-(4-morpholin-4-yl-phenyl)-amine], the IC50 was 251 nM at CDK2-cycline E and 100 nM on Aurora A kinase. As for `Cc1nc(CO)sc1-c1ccnc(Nc2ccc(N(C)C)cc2)n1` [Compound 132, {5-[2-(4-Dimethylamino-phenylamino)-pyrimidin-4-yl]-4-methyl-thiazol-2-yl}-methanol], the results for the IC50 at CDK2-cycline E and on Aurora A kinase were 631 nM and 100 nM, respectively. The corresponding values for `CCN(CC)S(=O)(=O)c1ccc(Nc2nccc(-c3sc(NC)nc3C)n2)cc1` [Compound 52, N,N-Diethyl-4-[4-(4-methyl-2-methylamino-thiazol-5-yl)-pyrimidin-2-ylamino]-benzenesulfonamide] are 1000 nM and 100 nM. Turning to `CCNc1nc(C)c(-c2ccnc(Nc3ccc(OC)c(C)c3)n2)s1` [Compound 187, [4-(2-Ethylamino-4-methyl-thiazol-5-yl)-pyrimidin-2-yl]-(4-methoxy-3-methyl-phenyl)-amine], the IC50 is 794 nM at CDK2-cycline E and 100 nM at Aurora A kinase. The corresponding values for `Cc1nc(C)c(-c2ccnc(Nc3ccc(N4CCOCC4)c(Cl)c3)n2)s1` [Compound 141, (3-Chloro-4-morpholin-4-yl-phenyl)-[4-(2,4-dimethyl-thiazol-5-yl)-pyrimidin-2-yl]-amine] are 794 nM and 158 nM. As to `CCNc1nc(C)c(-c2ccnc(Nc3ccc(N4CCCCC4)cc3)n2)s1` [Compound 194, [4-(2-Ethylamino-4-methyl-thiazol-5-yl)-pyrimidin-2-yl]-(4-piperidin-1-yl-phenyl)-amine], the figures for the IC50 at CDK2-cycline E and at Aurora A kinase were 794 nM and 79.4 nM, respectively. The corresponding values for `Cc1nc(NC(C)(C)C)sc1-c1ccnc(Nc2ccc(N3CCOCC3)cc2)n1` [Compound 143, [4-(2-tert-Butylamino-4-methyl-thiazol-5-yl)-pyrimidin-2-yl]-(4-morpholin-4-yl-phenyl)-amine] are 126 nM and 50.1 nM.

In the case of `COCCNS(=O)(=O)c1ccc(Nc2nccc(-c3sc(C)nc3C)n2)cc1` [Compound 43, 4-[4-(2,4-Dimethyl-thiazol-5-yl)-pyrimidin-2-ylamino]-N-(2-methoxy-ethyl)-benzenesulfonamide], the results for the IC50 on CDK2-cycline E and on Aurora A kinase were 10 nM and 126 nM, respectively. As for `COc1ccc(Nc2nccc(-c3sc(N)nc3C)n2)cc1C` [Compound 185, [4-(2-Amino-4-methyl-thiazol-5-yl)-pyrimidin-2-yl]-(4-methoxy-3-methyl-phenyl)-amine], the IC50 at CDK2-cycline E was 251 nM; on Aurora A kinase, 39.8 nM. In the case of `CCNc1nc(C)c(-c2ccnc(Nc3ccc(N4CCOCC4)c(C(N)=O)c3)n2)s1` [Compound 212, 5-[4-(2-Ethylamino-4-methyl-thiazol-5-yl)-pyrimidin-2-ylamino]-2-morpholin-4-yl-benzamide], the IC50 on CDK9/cyclin T1 was 1260 nM; at CDK2-cycline E, 1000 nM; on Aurora A kinase it was 63.1 nM. `COc1ccc(Nc2nccc(-c3sc(C)nc3C)n2)cc1CN1CCOCC1` [Compound 215, [4-(2,4-Dimethyl-thiazol-5-yl)-pyrimidin-2-yl]-(4-methoxy-3-morpholin-4-ylmethyl-phenyl)-amine]: the figures for the IC50 at CDK2-cycline E and on Aurora A kinase were 1580 nM and 200 nM, respectively. `CNc1nc(C)c(-c2ccnc(Nc3ccc(OC)c(C)c3)n2)s1` [Compound 184, (4-Methoxy-3-methyl-phenyl)-[4-(4-methyl-2-methylamino-thiazol-5-yl)-pyrimidin-2-yl]-amine]: the values for the IC50 at CDK2-cycline E and on Aurora A kinase were 126 nM and 63.1 nM, respectively. On to `COc1cc(Nc2nccc(-c3sc(CO)nc3C)n2)ccc1N1CCOCC1` [Compound 200, {5-[2-(3-Methoxy-4-morpholin-4-yl-phenylamino)-pyrimidin-4-yl]-4-methyl-thiazol-2-yl}-methanol], for which the figures for the IC50 at CDK2-cycline E and at Aurora A kinase were 2000 nM and 39.8 nM, respectively. As for `CCNc1nc(C)c(-c2ccnc(Nc3cccc(Br)c3)n2)s1` [Compound 50, (3-Bromo-phenyl)-[4-(2-ethylamino-4-methyl-thiazol-5-yl)-pyrimidin-2-yl]-amine], the IC50 was 200 nM on CDK9/cyclin T1 and 20 nM on Aurora A kinase.

Regarding `CCNc1nc(C)c(-c2ccnc(Nc3ccc(N4CCN(C)CC4)cc3)n2)s1` [Compound 196, [4-(2-Ethylamino-4-methyl-thiazol-5-yl)-pyrimidin-2-yl]-[4-(4-methyl-piperazin-1-yl)-phenyl]-amine], the IC50 at CDK2-cycline E was 631 nM; at Aurora A kinase it was 200 nM. With `CNc1ccc(Nc2nccc(-c3sc(C)nc3C)n2)cc1C(F)(F)F` [Compound 149, N^4-[4-(2,4-Dimethyl-thiazol-5-yl)-pyrimidin-2-yl]-N^1-methyl-2-trifluoromethyl-benzene-1,4-diamine], the IC50 on CDK2-cycline E is 251 nM; on Aurora A kinase, 398 nM. Consider `CCNc1nc(C)c(-c2ccnc(Nc3ccc(N4CCOCC4)c(Cl)c3)n2)s1` [Compound 134, (3-Chloro-4-morpholin-4-yl-phenyl)-[4-(2-ethylamino-4-methyl-thiazol-5-yl)-pyrimidin-2-yl]-amine], for which the IC50 is 200 nM on CDK2-cycline E and 126 nM on Aurora A kinase. Consider `Cc1nc(C)c(-c2ccnc(Nc3ccc(N4CCCCC4)cc3)n2)s1` [Compound 193, [4-(2,4-Dimethyl-thiazol-5-yl)-pyrimidin-2-yl]-(4-piperidin-1-yl-phenyl)-amine], for which the results for the IC50 at CDK9/cyclin T1 and on Aurora A kinase were 3980 nM and 200 nM, respectively. Turning to `CCNc1nc(C)c(-c2ccnc(Nc3ccc4c(c3)OCCO4)n2)s1` [Compound 181, (2,3-Dihydro-benzo[1,4]dioxin-6-yl)-[4-(2-ethylamino-4-methyl-thiazol-5-yl)-pyrimidin-2-yl]-amine], the IC50 on CDK2-cycline E is 501 nM; at Aurora A kinase, 200 nM. In the case of `CCNc1nc(C)c(-c2ccnc(N)n2)s1` [Compound 86, 4-(2-Ethylamino-4-methyl-thiazol-5-yl)-pyrimidin-2-ylamine], on Aurora A kinase, the IC50 was 1000 nM. As for `CNc1nc(C)c(-c2ccnc(N)n2)s1` [Compound 85, 4-(4-Methyl-2-methylamino-thiazol-5-yl)-pyrimidin-2-ylamine], the IC50 on Aurora A kinase was 398 nM.

`CCNc1nc(C)c(-c2ccnc(Nc3ccc(N4CCOCC4)cc3C)n2)s1` [Compound 146, [4-(2-Ethylamino-4-methyl-thiazol-5-yl)-pyrimidin-2-yl]-(2-methyl-4-morpholin-4-yl-phenyl)-amine]: the IC50 on Aurora A kinase was 2510 nM. In the case of `COc1ccc(C)c(Nc2nccc(-c3sc(C)nc3C)n2)c1` [Compound 113, [4-(2,4-Dimethyl-thiazol-5-yl)-pyrimidin-2-yl]-(5-methoxy-2-methyl-phenyl)-amine], the IC50 on Aurora A kinase was 5010 nM. As for `COc1ccc(Nc2nccc(-c3sc(-c4cccnc4)nc3C)n2)cc1C` [Compound 186, (4-Methoxy-3-methyl-phenyl)-[4-(4-methyl-2-pyridin-3-yl-thiazol-5-yl)-pyrimidin-2-yl]-amine], the IC50 at Aurora A kinase is 501 nM.
